Reference: patent US11209582B2, “Composition, curable composition, cured film, near infrared cut filter, infrared transmitting filter, solid image pickup element, infrared sensor, and camera module” (FUJIFILM Corporation, priority 2016, dated 2021)

Assay: Absorption spectrum in solution (absorption maximum λmax, absorption coefficient)
Assay type: physicochemical
Settings: not given
Description: It is preferable that the compound represented by Formula (1) is a compound having an absorption maximum in a wavelength range of 700 to 1200 nm. In addition, a ratio A1/A2 of an absorbance A1 at a wavelength of 500 nm to an absorbance A2 at the absorption maximum is preferably 0.1 or lower and more preferably 0.05 or lower. The absorbance of the compound is a value obtained from the absorption spectrum of the compound in the solution. Examples of a measurement solvent used for the measurement of the absorption spectrum of the compound represented by Formula (1) in the solution include chloroform, dimethyl sulfoxide, and tetrahydrofuran. In a case where the compound represented by Formula (1) is soluble in chloroform, chloroform is used as the measurement solvent. In addition, in a case where the compound represented by Formula (1) is not soluble in chloroform and is soluble in dimethyl sulfoxide or tetrahydrofuran, dimethyl sulfoxide or tetrahydrofuran is used as the measurement solvent.

| gram absorption coefficient [L/g/cm] | molar absorption coefficient [L/mol/cm] | Compound |
| --- | --- | --- |
| 200 | 185000 | COc1ccc2sc(C(C#N)=c3c4c(-c5ccc(O)cc5)n(B(c5ccccc5)c5ccccc5)c(=C(C#N)c5nc6cc(OC)ccc6s5)c4c(-c4ccc(O)cc4)n3B(c3ccccc3)c3ccccc3)nc2c1 [A-15] |

Same assay, conditions: in chloroform

| Compound | λmax (absorption maximum) [nm] |
| --- | --- |
| CCN(CC)CCCN1C(=O)c2ccc(C(=O)Oc3ccc(-c4c5/c(=C(\C#N)c6cnc7cc(Cl)c(Cl)cc7n6)n(B(c6ccccc6)c6ccccc6)c(-c6ccc(OC(=O)c7ccc8c(c7)C(=O)N(CCCN(CC)CC)C8=O)cc6)c5/c(=C(\C#N)c5cnc6cc(Cl)c(Cl)cc6n5)n4B(c4ccccc4)c4ccccc4)cc3)cc2C1=O [B-644] | 883 |
| CCC(C)COc1ccc(-c2c3c(=C(C#N)c4nc5cc(Cl)ccc5s4)n(B(c4ccccc4)c4ccccc4)c(-c4ccc(OCC(C)CC)cc4)c3c(=C(C#N)c3nc4cc(Cl)ccc4s3)n2B(c2ccccc2)c2ccccc2)cc1 (centres unmarked) [A-2] | 782 |
| CCC(C)COc1ccc(-c2c3c(=C(C#N)c4nc5ccc(Cl)cc5s4)n(B(c4ccccc4)c4ccccc4)c(-c4ccc(OCC(C)CC)cc4)c3c(=C(C#N)c3nc4ccc(Cl)cc4s3)n2B(c2ccccc2)c2ccccc2)cc1 (centres unmarked) [A-3] | 786 |
| CCC(C)COc1ccc(-c2c3/c(=C(\C#N)c4cnc5ccccc5n4)n(B(c4ccccc4)c4ccccc4)c(-c4ccc(OCC(C)CC)cc4)c3/c(=C(\C#N)c3cnc4ccccc4n3)n2B(c2ccccc2)c2ccccc2)cc1 (centres unmarked) [A-201] | 862 |
| CCC(C)COc1ccc(-c2c3c(=C(C#N)c4nc5ccc(OC)cc5s4)n(B(c4ccccc4)c4ccccc4)c(-c4ccc(OCC(C)CC)cc4)c3c(=C(C#N)c3nc4ccc(OC)cc4s3)n2B(c2ccccc2)c2ccccc2)cc1 (centres unmarked) [A-8] | 802 |
| CCC(C)COc1ccc(-c2c3c(=C(C#N)c4nc5cc(C)ccc5s4)n(B(c4ccccc4)c4ccccc4)c(-c4ccc(OCC(C)CC)cc4)c3c(=C(C#N)c3nc4cc(C)ccc4s3)n2B(c2ccccc2)c2ccccc2)cc1 (centres unmarked) [A-4] | 785 |
| CCC(C)COc1cccc(-c2c3c(=C(C#N)c4nc5cc(C)c(C)cc5s4)n(B(c4ccccc4)c4ccccc4)c(-c4cccc(OCC(C)CC)c4)c3c(=C(C#N)c3nc4cc(C)c(C)cc4s3)n2B(c2ccccc2)c2ccccc2)c1 (centres unmarked) [A-30] | 795 |
| COc1ccc2sc(C(C#N)=c3c4c(-c5ccc(OC(=O)c6ccccc6)cc5)n(B(c5ccccc5)c5ccccc5)c(=C(C#N)c5nc6cc(OC)ccc6s5)c4c(-c4ccc(OC(=O)c5ccccc5)cc4)n3B(c3ccccc3)c3ccccc3)nc2c1 [A-81] | 800 |

Results, then the compound that gave them:

| λmax (absorption maximum) [nm] | Compound |
| --- | --- |
| 794 | CCC(C)COc1ccc(-c2c3c(=C(C#N)c4nc5cc(C)c(C)cc5s4)n(B(c4ccccc4)c4ccccc4)c(-c4ccc(OCC(C)CC)cc4)c3c(=C(C#N)c3nc4cc(C)c(C)cc4s3)n2B(c2ccccc2)c2ccccc2)cc1 (centres unmarked) [A-6] |
| 780 | CCC(C)COc1ccc(-c2c3c(=C(C#N)c4nc5ccccc5s4)n(B(c4ccccc4)c4ccccc4)c(-c4ccc(OCC(C)CC)cc4)c3c(=C(C#N)c3nc4ccccc4s3)n2B(c2ccccc2)c2ccccc2)cc1 (centres unmarked) [A-1] |
| 883 | CN1C(=O)c2ccc(C(=O)Oc3ccc(-c4c5c(=C(C#N)c6cnc7cc(Cl)c(Cl)cc7n6)n(B(c6ccccc6)c6ccccc6)c(-c6ccc(OC(=O)c7ccc8c(c7)C(=O)N(C)C8=O)cc6)c5c(=C(C#N)c5cnc6cc(Cl)c(Cl)cc6n5)n4B(c4ccccc4)c4ccccc4)cc3)cc2C1=O [A-514] |
| 782 | CCC(C)COc1cccc(-c2c3c(=C(C#N)c4nc5ccccc5s4)n(B(c4ccccc4)c4ccccc4)c(-c4cccc(OCC(C)CC)c4)c3c(=C(C#N)c3nc4ccccc4s3)n2B(c2ccccc2)c2ccccc2)c1 (centres unmarked) [A-25] |
| 794 | CCC(C)COc1ccc(-c2c3c(=C(C#N)c4nc5cc(OC)ccc5s4)n(B(c4ccccc4)c4ccccc4)c(-c4ccc(OCC(C)CC)cc4)c3c(=C(C#N)c3nc4cc(OC)ccc4s3)n2B(c2ccccc2)c2ccccc2)cc1 (centres unmarked) [A-7] |
| 717 | CCC(C)COc1ccc(-c2c3c(=C(C#N)c4nc5ccccc5s4)n(B4Oc5ccccc5O4)c(-c4ccc(OCC(C)CC)cc4)c3c(=C(C#N)c3nc4ccccc4s3)n2B2Oc3ccccc3O2)cc1 (centres unmarked) [A-60] |
| 788 | CCC(C)COc1ccc(-c2c3c(=C(C#N)c4nc5ccc(C)cc5s4)n(B(c4ccccc4)c4ccccc4)c(-c4ccc(OCC(C)CC)cc4)c3c(=C(C#N)c3nc4ccc(C)cc4s3)n2B(c2ccccc2)c2ccccc2)cc1 (centres unmarked) [A-5] |

Same assay, conditions: in dimethyl sulfoxide (DMSO)

| λmax (absorption maximum) [nm] | Compound |
| --- | --- |
| 795 | COc1ccc2sc(C(C#N)=c3c4c(-c5ccc(O)cc5)n(B(c5ccccc5)c5ccccc5)c(=C(C#N)c5nc6cc(OC)ccc6s5)c4c(-c4ccc(O)cc4)n3B(c3ccccc3)c3ccccc3)nc2c1 [A-15] |
| 795 | Cc1cc2nc(C(C#N)=c3c4c(-c5ccc(O)cc5)n(B(c5ccccc5)c5ccccc5)c(=C(C#N)c5nc6cc(C)c(C)cc6s5)c4c(-c4ccc(O)cc4)n3B(c3ccccc3)c3ccccc3)sc2cc1C [A-14] |
| 782 | N#CC(c1nc2ccccc2s1)=c1c2c(-c3ccc(O)cc3)n(B(c3ccccc3)c3ccccc3)c(=C(C#N)c3nc4ccccc4s3)c2c(-c2ccc(O)cc2)n1B(c1ccccc1)c1ccccc1 [A-9] |
| 782 | N#CC(c1nc2cc(Cl)ccc2s1)=c1c2c(-c3ccc(O)cc3)n(B(c3ccccc3)c3ccccc3)c(=C(C#N)c3nc4cc(Cl)ccc4s3)c2c(-c2ccc(O)cc2)n1B(c1ccccc1)c1ccccc1 [A-10] |

Assay: Measurement of solubility in solvent at 25° C.
Assay type: physicochemical
Settings: organic solvent or mixture, thermodynamic from solid; in propylene glycol monomethyl ether acetate and 2-butanol at 25° C.
Method: <Measurement of Solubility>
A measurement sample was added to a solvent at 25° C. under the atmospheric pressure, the solution was stirred for 1 hour, and the solubility of the measurement sample in the solvent was obtained.

| solubility at 1 h [µg/mL] | Compound |
| --- | --- |
| < 100 | CCN(CC)CCCN1C(=O)c2ccc(C(=O)Oc3ccc(-c4c5/c(=C(\C#N)c6cnc7cc(Cl)c(Cl)cc7n6)n(B(c6ccccc6)c6ccccc6)c(-c6ccc(OC(=O)c7ccc8c(c7)C(=O)N(CCCN(CC)CC)C8=O)cc6)c5/c(=C(\C#N)c5cnc6cc(Cl)c(Cl)cc6n5)n4B(c4ccccc4)c4ccccc4)cc3)cc2C1=O [B-644] |
| < 100 | N#C/C(c1cnc2cc(Cl)c(Cl)cc2n1)=c1\c2c(-c3ccc(OC(=O)c4ccc5c(c4)C(=O)N(CCCS(=O)(=O)O)C5=O)cc3)n(B(c3ccccc3)c3ccccc3)/c(=C(/C#N)c3cnc4cc(Cl)c(Cl)cc4n3)c2c(-c2ccc(OC(=O)c3ccc4c(c3)C(=O)N(CCCS(=O)(=O)O)C4=O)cc2)n1B(c1ccccc1)c1ccccc1 [B-634] |
